Measurements taken from patent US20250171436A1, “Tricyclic Fused Heterocyclic PDE3/4 Dual Inhibitor and Use Thereof” (XIZANG HAISCO PHARMACEUTICAL CO., LTD., priority 2022, published 2025).

How the values were obtained:
PDE4 = settings: biological activity data, background; cited from earlier work
[1] = reported in WO 2000058308 A1; cited from earlier work
[2] = reported in WO 2000058308 A1; cited from earlier work; remark: listed apart in the source
PDE3A recombinant enzyme = biological target: T1, PDE3A recombinant enzyme (Homo sapiens, UniProt Q14432); experiment: In vitro assay of inhibitory activity against PDE 3A enzyme (FP, FAM-cAMP); format: biochemical; settings: in vitro screening assay
T1 construct: purchased BPS 79736
T1 sequence (Q14432 whole entry): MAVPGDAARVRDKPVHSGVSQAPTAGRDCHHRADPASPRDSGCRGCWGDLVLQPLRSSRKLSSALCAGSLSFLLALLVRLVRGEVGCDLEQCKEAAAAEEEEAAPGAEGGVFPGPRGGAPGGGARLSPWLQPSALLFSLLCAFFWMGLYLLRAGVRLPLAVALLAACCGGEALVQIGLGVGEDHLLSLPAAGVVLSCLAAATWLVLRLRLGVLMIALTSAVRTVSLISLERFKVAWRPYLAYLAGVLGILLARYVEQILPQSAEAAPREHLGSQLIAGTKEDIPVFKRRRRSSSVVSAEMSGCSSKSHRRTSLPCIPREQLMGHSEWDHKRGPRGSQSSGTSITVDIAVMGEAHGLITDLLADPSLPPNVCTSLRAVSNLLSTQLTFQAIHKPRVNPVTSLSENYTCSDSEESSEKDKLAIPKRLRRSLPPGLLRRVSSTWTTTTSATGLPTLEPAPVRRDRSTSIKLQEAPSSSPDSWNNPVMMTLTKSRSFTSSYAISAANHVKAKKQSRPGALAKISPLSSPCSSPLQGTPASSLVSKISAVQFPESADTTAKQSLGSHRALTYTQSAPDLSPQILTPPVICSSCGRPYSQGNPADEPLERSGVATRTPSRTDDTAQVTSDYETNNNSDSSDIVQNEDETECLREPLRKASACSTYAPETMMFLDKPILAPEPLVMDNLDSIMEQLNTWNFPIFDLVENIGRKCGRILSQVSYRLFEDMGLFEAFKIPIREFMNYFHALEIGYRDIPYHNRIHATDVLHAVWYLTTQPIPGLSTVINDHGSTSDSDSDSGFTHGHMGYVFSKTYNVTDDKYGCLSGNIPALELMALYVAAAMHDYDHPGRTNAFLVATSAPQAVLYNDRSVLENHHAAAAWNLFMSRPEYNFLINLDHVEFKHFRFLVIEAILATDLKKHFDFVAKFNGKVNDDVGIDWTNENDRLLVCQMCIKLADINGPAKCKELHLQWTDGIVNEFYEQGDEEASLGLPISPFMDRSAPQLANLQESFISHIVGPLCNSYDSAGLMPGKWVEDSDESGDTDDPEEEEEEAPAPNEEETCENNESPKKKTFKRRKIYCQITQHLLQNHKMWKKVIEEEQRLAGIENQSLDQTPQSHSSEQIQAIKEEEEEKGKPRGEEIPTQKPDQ
Procedure: (§1) • 1. In vitro assay of the inhibitory activity of compounds against PDE 3A and PDE 4B2 enzymes
(§2) • Envision 2104 Multilabel Reader (PerkinElmer) • Black 96-well Plate (Cat #6005540, PerkinElmer) • PDE3A Assay Kit (BPS, Cat. 79736), PDE4B2 Assay Kit (BPS, Cat. 60343) • PDE3A recombinant enzyme • PDE4B2 recombinant enzyme • FAM-Cyclic-3′, 5′-AMP • PDE assay buffer • Binding Agent • Binding Agent Diluent (cAMP)
(§3) • 1) Prepare FAM cAMP working solution: 20 μL of FAM-Cyclic-3′,5′-AMP stock was added to 1980 μL of PDE assay buffer. The mixture was added to all wells at 25 μL/well. • 2) Prepare compound solution: the test compounds were dissolved in DMSO to give a 10 mM stock solution. The compound stock solution was diluted with DMSO to a 100× Top Dose diluent. 5 μL of 100× Top Dose diluent was added to 45 μL of PDE assay buffer to prepare a compound Top Dose working solution. Then, the compound working solution was subjected to double dilution with PDE assay buffer containing 10% DMSO to prepare compound working solutions of various concentrations. The compound working solutions were added to compound wells at 5 μL/well. 5 μL of PDE assay buffer containing 10% DMSO was added to each control well. • 3) Prepare PDE enzyme solution: PDE3A and PDE4B2 enzyme stock solutions were diluted to 150 pg/μL and 50 pg/μL, respectively, with PDE assay buffer, and added to all compound wells and Vehicle control wells at 20 μL/well. 20 μL of PDE assay buffer was added to Blank control wells. • 4) React at room temperature for 1 h. • 5) Prepare Binding Agent: 80 μL of binding agent was added to 7920 μL of binding agent diluent, and the mixture was mixed well and added to all wells at 100 μL/well. • 6) React at room temperature for 1 h. • 7) Read FP on Envision. • 8) Calculation formula for original data:
(§4) % inhibition rate=(FPV−FPS)/(FPV−FPB)×100% • FPS=sample FP • FPV=Vehicle control FP • FPB=Blank control FP.
(§5) Nonlinear regression analysis of log[dose]-inhibition rate was performed by graphpad and IC50 was calculated.

[3] = biological target: T2, PDE4B2 recombinant enzyme (Homo sapiens, UniProt Q07343); experiment: In vitro assay of inhibitory activity against PDE 4B2 enzyme (FP, FAM-cAMP); format: biochemical; settings: in vitro screening assay
T2 construct: purchased BPS 60343
T2 sequence (Q07343 1-564 isoform Q07343-2): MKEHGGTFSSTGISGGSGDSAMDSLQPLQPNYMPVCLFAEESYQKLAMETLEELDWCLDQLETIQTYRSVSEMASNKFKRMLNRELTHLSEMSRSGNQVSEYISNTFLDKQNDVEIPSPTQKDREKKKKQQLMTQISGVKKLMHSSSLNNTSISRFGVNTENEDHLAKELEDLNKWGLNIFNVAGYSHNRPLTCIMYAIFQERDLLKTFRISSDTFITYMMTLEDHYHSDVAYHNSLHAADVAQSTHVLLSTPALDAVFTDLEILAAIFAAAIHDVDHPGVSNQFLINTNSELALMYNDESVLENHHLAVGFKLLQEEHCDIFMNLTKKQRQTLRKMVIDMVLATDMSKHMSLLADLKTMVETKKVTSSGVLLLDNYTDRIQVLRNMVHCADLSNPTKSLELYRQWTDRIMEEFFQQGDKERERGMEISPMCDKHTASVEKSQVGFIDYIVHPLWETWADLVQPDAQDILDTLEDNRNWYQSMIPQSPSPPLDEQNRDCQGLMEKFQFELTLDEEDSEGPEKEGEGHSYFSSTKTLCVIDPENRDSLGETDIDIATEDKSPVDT
Procedure: as §1, §2, §3, §4, §5

| SMILES | PDE4 inhibitory activity (PDE4) | solubility [1] | plasma clearance [2] | IC50 (PDE3A recombinant enzyme) | IC50 [3] |
| --- | --- | --- | --- | --- | --- |
| COc1cc2c(cc1OC)-c1c/c(=N\c3c(C)cc(C)cc3C)n(CCNC(N)=O)c(=O)n1CC2 [RPL554] | unsatisfactory | poor | high | – | – |
| COc1cc2c(cc1OC)-c1c/c(=N\c3c(C)cc(C4CC4)cc3C)n(CCNC(=O)c3c(O)nnn3C)c(=O)n1CC2 [Compound 6, (E)-N-(2-(2-((4-cyclopropyl-2,6-dimethylphenyl)imino)-9,10-dimethoxy-4-oxo-6,7-dihydro-2H-pyrimido[6,1-a]isoquinolin-3(4H)-yl)ethyl)-4-hydroxy-1-methyl-1H-1,2,3-triazole-5-carboxamide] | – | – | – | 0.53 nM | 8.43 nM |
| CCOc1cc2c(cc1OC)-c1c/c(=N\c3c(C)cc(OC)cc3C)n(CCNC(=O)c3c(O)nnn3C)c(=O)n1CC2 [Compound 9, (E)-N-(2-(9-ethoxy-10-methoxy-2-((4-methoxy-2,6-dimethylphenyl)imino)-4-oxo-6,7-dihydro-2H-pyrimido[6,1-a]isoquinolin-3(4H)-yl)ethyl)-4-hydroxy-1-methyl-1H-1,2,3-triazole-5-carboxamide] | – | – | – | 0.5 nM | 1.52 nM |
| CCOc1cc2c(cc1OC)-c1c/c(=N\c3c(C)cc(C4CC4)cc3C)n(CCNC(=O)c3c(O)nnn3C)c(=O)n1CC2 [Compound 8, (E)-N-(2-(2-((4-cyclopropyl-2,6-dimethylphenyl)imino)-9-ethoxy-10-methoxy-4-oxo-6,7-dihydro-2H-pyrimido[6,1-a]isoquinolin-3(4H)-yl)ethyl)-4-hydroxy-1-methyl-1H-1,2,3-triazole-5-carboxamide] | – | – | – | 0.59 nM | 1.4 nM |
